Bridge positions count the residues as written; N and C are the ends. Square brackets hold non-standard residues; d marks the D form. Ends that are not written are not given here. hPhe = N[C@@H](CCc1ccccc1)C(=O)O; Cit = NC(=O)NCCC[C@H](N)C(=O)O
Tests used:
MGC-803 xenograft = assay: Synergy with doxorubicin in gastric cancer animal model in vivo; set-up: species or system athymic BALB/cA nu/nu female mice; conditions: 1 mg/kg i.p. every other day for 3 weeks
[1] = system: SGC-7901 gastric cancer cells; assay: Growth suppression, apoptosis and IC50 in gastric cancer cells SGC-7901; assay type: cell-based; conditions: Homo sapiens, read-out: IC50 (IC50 drift, DOX only or AMP-001/DOX combination); SGC-7901 cells
[2] = system: MGC-803 gastric cancer cells; assay: Growth suppression, apoptosis and IC50 in gastric cancer cells MGC-803; assay type: cell-based; conditions: Homo sapiens, MGC-803, read-out: IC50 (IC50 drift, DOX only or AMP-001/DOX combination)
iCell Cardiomyocytes = assay: cells; conditions: Homo sapiens, Cardiomyocyte, read-out: IC50 in cardiomyocytes
Experimental: Cardiomyocytes were derived from this engineered stem cell clone line as follows. Stem cell aggregates were formed from single cells and cultured in suspension in medium containing zebrafish bFGF (basic fibroblast growth factor) and fetal bovine serum. Upon observation of beating cardiac aggregates, cultures were subjected to blasticidin selection at 25 ug/ml to enrich the cardiomyocyte population. Cardiomyocyte aggregate cultures were maintained in Dulbecco's modified Eagle's medium (DMEM) containing 10% fetal bovine serum during cardiomyocyte selection through the duration of the culture prior to cryopreservation. At 30 to 32 days of culture the enriched, stem cell-derived cardiomyocytes were subjected to enzymatic dissociation using 0.5% trypsin to obtain single cell suspensions of purified cardiomyocytes, which were >98% cardiac troponin-T (cTNT) positive. These cells (iCell® Cardiomyocytes) were cryopreserved and stored in liquid nitrogen before delivery to Ionic Transport Assays from Cellular Dynamics International, Madison, WI.
For this study, single vials containing≈4.5×10^6 cardiomyocytes were thawed by immersing the frozen cryo-vial in a 37° C. water bath, transferring thawed cardiomyocytes into a 50 ml tube and diluting them with room temperature plating medium (iCell® Cardiomyocyte Plating Medium (iCPM), Cellular Dynamics International). […]

[3] = system: MDA-MB-231 triple negative breast cancer cells; assay: Cell death / apoptosis induction, concentration dependent treatment (FACS); assay type: cell-based; conditions: TNBC MDA-MB-231 cells, read-out: cell death effect IC-50
Experimental: Briefly, MDA-MB-231 cells are seeded in 12-well culture plates and grown to 80% confluency, followed by 72 h treatment with various concentrations of drugs in various combinations; untreated MDA-MB-231 cells are used as control. After the completion of treatment time cells are trypsinized, washed, and analyzed for dead or apoptotic cells by staining with propidium iodide (10 μg/ml) for 15 min, followed by flow cytometry (FACS Aria Ill, BD Biosciences, San Jose, CA, USA) at the Stanford FACS Facility. Data are analyzed by Flow Jo FACS analysis software (Tree Star, Ashland, OR, USA).

MDA-MB-231 tumor cells = assay: Synergistic cell death effect of AMP compounds with chemotherapy (doxorubicin, carboplatin); assay type: cell-based
Experimental: MMP2 cleavable AMP-008 was dissolved in culture medium and sonicated for 2 min each and repeated for 3 times. After the cells treated with different concentration of doxorubicin HCl (Bedford Lab, Bedford, OH), AMP compounds alone or combination of doxorubicin and AMP compounds were tested for 17 hrs incubation respectively, the cells were washed three times with PBS (pH 7.4) and incubated with Cy5.5 Annexin-V (BD Bioscience Pharmingen) according to the instructions of the manufacture. The cells were imaged using Nikon Eclipse TE-300 fluorescence microscope and counted under Ex/Em 620-680 nm nm/700-750 nm.

Compound	extent of tumor regression (MGC-803 xenograft)	IC50 [1] [µM]	IC50 [2] [µM]	IC50 (iCell Cardiomyocytes) [µM]	IC50 [3] [µM]	synergistic effect when both were administered together (MDA-MB-231 tumor cells; AMP compound and doxorubicin administered together)	cell death, synergistic (not additive) effect (MDA-MB-231 tumor cells; pretreatment with AMP compound for 6 hrs followed by 1 μM doxorubicin)
COc1cccc2c1C(=O)c1c(O)c3c(c(O)c1C2=O)C[C@@](O)(C(=O)CO)C[C@@H]3O[C@H]1C[C@H](N)[C@H](O)[C@H](C)O1 [doxorubicin]	reasonable	0.436	1.08	9.6			
AMP-004: human beta-defensin joined to MMP2 cleavable peptide, SEQ ID NO: 003, three disulfide bonds (Ac-EGGGP[Cit]G[hPhe]YLDHYNCVSSGGQCLYSACPIFTKIQGTCYRGKAKCCK; disulfide 15-44, 22-37, 27-45)					~5	Synergistic effect was same	greater than 80%

— patent US11957732B2, “Compositions and methods for sensitizing low responsive tumors to cancer therapy” (priority 2016, dated 2024)
